Tested on: CJLP17 strain
Assay: Antibiotic susceptibility test with antibiotic discs
Type: cell-based, Lactobacillus plantarum
Conditions: antibiotic disc on CJLP17 lawn, Mueller Hinton II medium, 37° C., 24 hours
Description: The CJLP17 strain was inoculated into a liquid MRS medium and subjected to a static culture at 37° C. for 24 hours. The thus-cultured bacteria were soaked in sterilized cotton swabs and smeared on a solid Mueller Hinton II medium (Difco), and then antibiotic discs were placed on the medium and incubated at 37° C. for 24 hours. Ampicillin, clindamycin, gentamicin, kanamycin, erythromycin, ampicillin/sulbactam, chloramphenicol, and streptomycin discs (Oxoid, UK) were used as antibiotic discs for the antibiotic test.

CC1(C)S[C@@H]2[C@H](NC(=O)[C@H](N)c3ccccc3)C(=O)N2[C@H]1C(=O)O [Amp10 (Ampicillin), Ampicillin]
Radius of Growth Inhibition Area Centered Around Antibiotics: 7.5 mm

CCC[C@@H]1C[C@@H](C(=O)N[C@@H]([C@H]2O[C@H](SC)[C@H](O)[C@@H](O)[C@H]2O)[C@H](C)Cl)N(C)C1 [C30 (Clindamycin), Clindamycin]
Radius of Growth Inhibition Area Centered Around Antibiotics: 7 mm

[H]/N=C(/N)N[C@H]1[C@H](O)[C@@H](O)[C@H](O[C@@H]2O[C@@H](C)[C@](O)(C=O)[C@H]2O[C@@H]2O[C@@H](CO)[C@H](O)[C@@H](O)[C@@H]2NC)[C@@H](N/C(N)=N\[H])[C@@H]1O [DA2 (Streptomycin), Streptomycin]
Radius of Growth Inhibition Area Centered Around Antibiotics: 4.5 mm

CC[C@H]1OC(=O)[C@H](C)[C@@H](O[C@H]2C[C@@](C)(OC)[C@@H](O)[C@H](C)O2)[C@H](C)[C@@H](O[C@@H]2O[C@H](C)C[C@H](N(C)C)[C@H]2O)[C@](C)(O)C[C@@H](C)C(=O)[C@H](C)[C@@H](O)[C@]1(C)O [E15 (Erythromycin), Erythromycin]
Radius of Growth Inhibition Area Centered Around Antibiotics: 12 mm

NC[C@H]1O[C@H](O[C@H]2[C@H](O)[C@@H](O[C@H]3O[C@H](CO)[C@@H](O)[C@H](N)[C@H]3O)[C@H](N)C[C@@H]2N)[C@H](O)[C@@H](O)[C@@H]1O [K30 (Kanamycin), Kanamycin]
Radius of Growth Inhibition Area Centered Around Antibiotics: 1.5 mm

O=C(N[C@H](CO)[C@H](O)c1ccc([N+](=O)[O-])cc1)C(Cl)Cl [S10 (Chloramphenicol), Chloramphenicol]
Radius of Growth Inhibition Area Centered Around Antibiotics: 3.5 mm

Ampicillin/Sulbactam [SAM20 (Ampicillin/Sulbactam)]
Radius of Growth Inhibition Area Centered Around Antibiotics: 7 mm

Gentamicin [CN120 (Gentamicin)]
Radius of Growth Inhibition Area Centered Around Antibiotics: 5 mm

From patent US11344588B2, “Lactobacillus plantarum CJLP17 having antiviral and immunomodulatory efficacies and composition comprising the same” (CJ CHEILJEDANG CORPORATION, priority 2018, dated 2022)
